Data taken from paper PMC12520456, “Regulating Enzyme Activity via Microaggregates Mediated by Phase Separation” (Advanced Science, 2025).
Non-standard residues stand in square brackets, D forms with d. Residues, ends and D or L forms follow the SMILES beside them.

Key:
[1] = test system: trypsin and chymotrypsin in ascitic fluid; assay: Ex vivo ascitic fluid from lethal POPF model: aggregates, FRAP, enzyme activity; format: biochemical, rat
Text: This ex vivo evidence confirms that DPMD mitigates POPF via an LSPS‐based mechanism: by assembling leaking pancreatic enzymes into non‐fusing microaggregates, DPMD effectively isolates and inactivates the enzymes, thereby preventing proteolytic damage to surrounding tissues.
Figure S13. (A) The evaluation of fluorescence polarization of DPMD with different volumes ascites. ( B) Representative time -lapse FRAP images howling the pre -bleach and recovery signals of DPMD -treated asciteschymotrypsin ex vitro. Circles indicate the bleached area. Scale bars, 10 μm and 1 μm (zoomed -in image). (C) Time-lapse images of DPMD-ascites mixture aggregates, illustrating the non-fusion of two aggregates. (D) The inhibition evaluation of enzymes in ascites bioactivity for trypsin and chymotrypsin by DPMD.
(1 picture or pasted object on this page, not shown here)

[2] = test system: trypsin pre-incubated with aprotinin; assay: Fluorescence anisotropy binding, aprotinin-blocked trypsin; conditions: inhibitor and protein both at 20 μM; Figure S3B
Text: Figure S3. The fluorescent anisotropy evaluation of binding affinity between DPMD peptide with Proteinase K (A), and inhibitor-saturated and blocked trypsin (B) and chymotrypsin (C). Trypsin/Chymotrypsin was saturated and blocked by aprotinin (Yeasen Biotechnology, trypsin/chymotrypsin inhibitor). (D-H) The fluorescent anisotropy evaluation of binding affinity between DPMD peptide with elastase (D), lipase (E), amylase(F), carboxypeptidase (G), albumin (H) and immunoglobulins (I).
Figure S4. The DLS analysis of trypsin, chymotrypsin and DPMD with/without trypsin or chymotrypsin. […]
data acquisition. A series of enzyme solutions with varying concentrations (maximum concentrations of trypsin and chymotrypsin were 20 μM each) were prepared in Tris-HCl buffer (10 mM Tris, 150 mM NaCl, 1 mM EDTA, pH 7.0). These enzyme solutions were added to the 96-well plate and incubated with 100 nM DPMD at room temperature for 30 minutes, with triplicates.
Fluorescence polarization was measured with an excitation wavelength of 470 nm and an emission […]
Plot the fluorescence intensity versus concentration data as scatter plots using Origin software.
For data analysis, fit the concentration-fluorescence polarization data with the logistic function in Origin 2021 software to obtain the fitting curve and determine the half-maximal effective concentration (EC50). […]

[3] = test system: postoperative pancreatic fistula (POPF); assay: Rat pancreatic splenic duct transection (non-lethal) POPF model; format: in vivo
Method: To investigate the biofunction of DPMD in preventing POPF, a slowly occurring POPF model was established in rats by transecting the peripancreatic splenic duct to induce a continuous but low leakage of pancreatic juice (Figure 3A). Following surgical modeling, DPMD, its L‐enantiomer LPMD, or normal saline (Ctrl) were topically applied on the incision site. After post operation, chymotrypsin leakage was assessed using a specific fluorescent dye. […] By monitoring ascitic and serum amylase and lipase levels over a span of 7 days following surgical modeling (Figure 3C), we were able to make inferences about the pathological score (Figure 3D) and the occurrence of POPF (Figure 3E). The noteworthy observation is that all the mock‐treated rats experienced POPF on day 3 following surgical modeling, and this phenomenon persisted until day 5 (Figure 3E). In contrast, LPMD reduced both the occurrence and severity of POPF, resulting in 33% of rats being healthy and only 67% experiencing minor POPF on day 3; furthermore, all rats fully recovered by day 5 (Figure 3E). […] Furthermore, both DPMD and LPMD treatments decreased inflammation markers including TNF‐α, IL‐6, IL‐8, IL‐33, sST2, CRP, HMGB1, MPO, PAF, PCT, PGE2, and SAA in rats’ serum (Figure 3G). […]
was performed using an Annexin V-Alexa Fluor 647/PI kit (Solarbio) according to the manufacturer’ s protocol. Briefly, adherent cells were detached with 0.25% EDTA-free trypsin, combined with floating cells from the supernatant. The pellet was washed twice with cold PBS and resuspended in 100 μL of 1× binding buffer. After adding Annexin V-647 and PI, cells were incubated for 15 min in the dark at room temperature. Samples were analyzed within 1h on a Sony MA900 flow cytometer.
3.12 Animal fluorescence imaging
Rats were intraperitoneally injected with 1 mL of rhodamine-labeled 0.5% (w/v) DPMD. […] The fluorescence emission intensity of the organs was measured using IVIS Spectrum system (PerkinElmer). […]

## CC[C@@H](C)[C@@H](NC(=O)[C@@H](CCC(N)=O)NC(=O)[C@H](NC(=O)[C@@H](Cc1ccc(O)cc1)NC(=O)CNC(=O)[C@@H](CC(C)C)NC(=O)[C@H](NC(=O)[C@@H](CO)NC(=O)CNC(=O)[C@@H](C)NC(=O)[C@@H](CC(=O)O)NC(=O)[C@@H](C)NC(=O)[C@@H](CCCNC(=N)N)NC(=O)[C@@H](C)NC(=O)[C@@H](CC(=O)O)NC(=O)[C@@H](C)NC(=O)[C@@H](CCCNC(=N)N)NC(=O)[C@@H](C)NC(=O)[C@@H](CC(=O)O)NC(=O)[C@@H](C)NC(=O)[C@@H](CCCNC(=N)N)NC(=O)[C@@H](C)NC(=O)[C@@H](CC(=O)O)NC(=O)[C@@H](C)NC(=O)[C@H](N)CCCNC(=N)N)C(C)C)[C@H](C)CC)C(=O)N[C@H](CCCNC(=N)N)C(=O)O [DPMD, Ac‐(D‐RADA)4‐CONH2] (H-[dR][dA][dD][dA][dR][dA][dD][dA][dR][dA][dD][dA][dR][dA][dD][dA]G[dS][dV][dL]G[dY][dI][dQ][dI][dR]-OH; N-terminus and C-terminus assumed)
other
  β-sheet content: 33.9%
[1]; Figure S13B
  fluorescence recovery after photobleaching of microaggregates in ascitic fluid: minimal fluorescence recovery after photobleaching
[1]; Figure S13D
  proteolytic activity of trypsin and chymotrypsin in ascitic fluid: markedly suppressed
[2]
  anisotropy change with aprotinin-blocked trypsin: only a minimal anisotropy change
[3]; Figure S10
  H&E staining of pancreatic tissue: reduced edema and inflammatory cell infiltration
[3]; topical application at incision site, Figure 3B
  chymotrypsin leakage by fluorescent dye imaging: nearly complete suppression of leakage
[3]; within 7 days after surgery, Figure 3G
  serum inflammation markers (TNF-α, IL-6, IL-8, IL-33, sST2, CRP, HMGB1, MPO, PAF, PCT, PGE2, SAA): decreased
